Measurements as given in US20040191902A1, “Growth and differentiation of stem cells” (Pfizer Inc, priority 2003, published 2004).

Legend:
[1] = system: CYP3a, CYP2d, CYP2e1 and CYP1a2 in hepatocyte-like cells; experiment: Conversion of test compounds by hepatocyte-like cells (HPLC and mass spectrometry of supernatants)
Protocol: The presence of CYP proteins in the hepatocyte-like cells was also determined by monitoring the conversion of certain compounds added to the hepatocyte-like cells. Two test compounds (7-ethoxy-coumarin and dextromethorphan) were added to hepatocyte-like cells. The supernatants of the cells were then subjected to high pressure liquid chromatography (HPLC) and mass spectrometry to identify products of the conversion of the test compounds by CYP3a, CYP2d, CYP2e1 and CYP1a2.

[2] = system: hepatocyte-like cells; experiment: Dibenzylfluorescein (DBF) assay for metabolic activity of hepatocyte-like cells; assay type: in vitro ADME, mouse; conditions: hepatocyte-like cells differentiated in presence or absence of HPO
Protocol: Another test that was used to characterize the hepatocyte-like cells is the dibenzylfluorescein (DBF) assay for metabolic activity. See, for example, Stresser et al., Drug Metab. Disp., 28:1440-48 (2000). These assays were conducted using a DBF compound (Molecular Probes, Eugene Oreg.) according to the manufacturer's recommendations.

[3] = system: 4MBr-5 cell line; conditions: 3H-thymidine incorporation, typical range; cited from earlier work
[4] = system: TF-1 cell line; conditions: proliferation of TF-1; typical range; cited from earlier work
[5] = system: Balb/3T3 cell line; conditions: 3H-thymidine incorporation, typical range; cited from earlier work
[6] = system: cells differentiating from ES cells into hepatocyte-like cells; experiment: In vitro differentiation of mouse ES cells into hepatocyte-like cells with hepatopoietin added to the media; assay type: cell-based
Protocol: Mouse ES cells were differentiated into hepatocyte-like cells as described above, with the addition of 50 ng/ml mouse hepatopoietin protein to the HepII, HepIII and/or HepIV media. The mouse hepatopoietin protein consisted of a portion of the wild-type protein, which portion has the amino acid sequence set forth in SEQ ID NO: 16.
The presence of hepatopoietin in either medium had this effect, but the strongest effect was seen when it was included in all three media, i.e., during the middle stage, the late stage and the maturation and selection stage. In this case, it appeared that over 90% of the cells in the culture were hepatocyte-like cells.

[7] = system: NIH/3T3 cells; conditions: 3H-thymidine incorporation, quiescent NIH/3T3; typical range; cited from earlier work

Question: For `CCOc1ccc2ccc(=O)oc2c1` [7-ethoxy-coumarin], which “conversion products by CYP3a, CYP2d, CYP2e1 and CYP1a2” value ([1]; hepatocytes) is on record?
Answer: expected conversion products were obtained

Question: For `O=C(OCc1ccccc1)c1ccccc1-c1c2ccc(=O)cc-2oc2cc(OCc3ccccc3)ccc12` [DBF, dibenzylfluorescein], which “DBF assay for metabolic activity” value [2] is on record?
Answer: positive

Question: Which “conversion products by CYP3a, CYP2d, CYP2e1 and CYP1a2” value ([1]; added to hepatocyte-like cells, supernatants by HPLC and mass spectrometry) does the source give for `COc1ccc2c(c1)[C@]13CCCC[C@@H]1[C@H](C2)N(C)CC3` [dextromethorphan] here?
Answer: expected conversion products were obtained

Question: For “human recombinant HGF: human recombinant hepatocyte growth factor”, which ED50 [3] is on record?
Answer: 20 to 40 ng/mL

Question: For “human recombinant OSM: human recombinant oncostatin M”, which ED50 [4] is on record?
Answer: 0.1 to 3 ng/mL

Question: For “human recombinant aFGF: human recombinant acidic fibroblast growth factor”, which ED50 [5] is on record?
Answer: 2 to 10 ng/mL

Question: For “mouse HPO: portion of wild-type mouse hepatopoietin, 125 amino acids, SEQ ID NO: 16, produced in E. coli”, which “proliferation of cells giving rise to hepatocyte-like cells” value ([6]; 50 ng/ml in HepII, HepIII and/or HepIV media) is on record?
Answer: stimulates the proliferation

Question: And the “cells in the culture that were hepatocyte-like cells” value ([6]; 50 ng/ml included in all three media (middle, late, maturation and selection stages))?
Answer: over 90%

B1: mouse recombinant OSM: mouse recombinant oncostatin M (protein, UniProt P53347 25-206, looked up)
Oncostatin-M: NRGCSNSSSQLLSQLQNQANLTGNTESLLEPYIRLQNLNTPDLRAACTQHSVAFPSEDTLRQLSKPHFLSTVYTTLDRVLYQLDALRQKFLKTPAFPKLDSARHNILGIRNNVFCMARLLNHSLEIPEPTQTDSGASRSTTTPDVFNTKIGSCGFLWGYHRFMGSVGRVFREWDDGSTRSRR
Question: With B1 as the molecule, how does the ED50 [7] read?
Answer: 2 to 4 ng/mL
